Assay results taken from ChEMBL document CHEMBL1201862, “PubChem BioAssay data set” (2004).
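96-well plates; 48 h exposure; 5 concentrations. Endpoints by linear interpolation between flanking doses. Not reached: highest tested concentration assigned. At the GI50, growth is halved.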 The source made the active and inactive calls. No stated cut-off is given here; in the data, active = GI50 up to about 1.1 µM and inactive = higher.

How the values were obtained:
Assay in all cases: NCI anticancer screen, dose series, 48 h
[1] = tested on: HCT-116
[2] = tested on: NCI/ADR-RES
[3] = tested on: T47D
[4] = tested on: HOP-62
[5] = tested on: MDA-N
[6] = tested on: MDA-MB-231
[7] = tested on: BT-549
[8] = tested on: SF-268
[9] = tested on: PC-3
[10] = tested on: NCI-H522
[11] = tested on: NCI-H23
[12] = tested on: HCC 2998
[13] = tested on: Hs-578T
[14] = tested on: CAKI-1
[15] = tested on: SK-MEL-28
[16] = tested on: SF-539
[17] = tested on: MCF7
[18] = tested on: DU-145
[19] = tested on: LXFL 529
[20] = tested on: DLD-1

Measured: GI50

C=CC[N+]12CN3CN(CN(C3)C1)C2
inactive: [1] 19 µM | [2] 26.1 µM | [3] 27 µM | [4] > 100 µM | [5] 17.3 µM | [6] 32.2 µM | [7] 26.7 µM | [8] 24.6 µM | [9] 31.4 µM | [10] 14.3 µM | [11] 24.2 µM | [12] 24 µM | [13] > 100 µM | [14] 20.5 µM | [15] 21.3 µM | [16] 16.9 µM | [17] 30.1 µM | [18] 21.1 µM

O=C1CCC2COc3ccc(O)c1c32 (configuration not stated)
inactive: [1] > 100 µM | [19] > 100 µM | [11] > 100 µM | [14] > 100 µM | [15] > 100 µM | [16] > 100 µM

O=c1[nH]nc(-c2ccccc2)n1/N=C/c1ccccc1Cl
inactive: [1] 33.9 µM | [2] 19.8 µM | [3] 24.8 µM | [4] 29.4 µM | [5] 33.1 µM | [6] > 100 µM | [7] 37.1 µM | [8] 53.6 µM | [9] 15.1 µM | [10] 18 µM | [11] 34.7 µM | [12] 36.2 µM | [13] 16.2 µM | [14] 36.6 µM | [15] 52 µM | [16] 39.3 µM | [17] 31.8 µM | [18] 41.3 µM

O=P1(O)c2ccccc2CS(=O)(=O)Cc2ccccc21
inactive: [1] > 100 µM | [2] > 100 µM | [3] > 100 µM | [4] > 100 µM | [5] > 100 µM | [6] > 100 µM | [7] > 100 µM | [8] > 100 µM | [9] > 100 µM | [10] > 100 µM | [11] > 100 µM | [12] > 100 µM | [13] > 100 µM | [14] > 100 µM | [15] > 100 µM | [16] > 100 µM | [17] > 100 µM | [18] > 100 µM

C(=C/c1nc2ccccc2o1)/c1ccc2c(c1)OCO2
inactive: [1] 12.3 µM | [2] 14.1 µM | [4] 16.2 µM | [8] 19.8 µM | [10] 7.74 µM | [20] 5.74 µM | [11] 22.9 µM | [12] 6.32 µM | [14] 9.82 µM | [15] 24.9 µM | [16] 16.6 µM | [17] 14.5 µM

COC(=O)Cc1c([C@H]2[C@H](CC(=O)OC)c3ccccc3N2C(=O)C(F)(F)F)[nH]c2ccccc12
inactive: [1] 15.5 µM | [2] 21.5 µM | [3] 36.5 µM | [4] 29 µM | [5] 32.3 µM | [6] 20.7 µM | [7] 27.6 µM | [8] 27.4 µM | [9] 11.4 µM | [10] 12 µM | [11] 25.2 µM | [12] 32.1 µM | [13] 22.8 µM | [14] 41.3 µM | [15] 34.5 µM | [16] 29.5 µM | [17] 26 µM | [18] 63 µM

COc1ccc(OCC(C)(C)O)cc1
inactive: [1] > 100 µM | [2] > 100 µM | [4] > 100 µM | [8] > 100 µM | [20] > 100 µM | [11] > 100 µM | [12] > 100 µM | [14] > 100 µM | [15] > 100 µM | [16] > 100 µM | [17] > 45.3 µM

COc1cccc(/C=C2\C(=O)N(C(=O)Cc3ccccc3)N=C2C)c1
inactive: [1] > 100 µM | [4] > 100 µM | [8] > 100 µM | [10] > 100 µM | [20] > 100 µM | [11] > 100 µM | [12] > 100 µM | [14] > 100 µM | [15] > 100 µM | [16] > 100 µM

CN(C)/N=C(/c1nc2ccc(Cl)cc2nc1O)C(O)c1ccc(C(O)/C(=N\N(C)C)c2nc3ccc(Cl)cc3nc2O)cc1 (configuration not stated)
inactive: [1] > 100 µM | [4] 93.1 µM | [8] > 100 µM | [10] > 100 µM | [20] > 100 µM | [11] > 100 µM | [12] > 100 µM | [14] > 100 µM | [15] > 100 µM | [16] > 100 µM

CCOc1ccc(NC(=O)C(=O)CC(=O)c2c(C)[n+]([O-])c3ccccc3[n+]2[O-])cc1
inactive: [1] > 100 µM | [4] > 100 µM | [8] > 100 µM | [19] > 100 µM | [10] > 100 µM | [11] > 100 µM | [12] > 100 µM | [14] > 100 µM | [15] > 100 µM | [16] > 100 µM

COc1cc(C2C(C(=O)NCc3ccccc3)=C(C)NC(C)=C2C(=O)NCc2ccccc2)ccc1O
inactive: [1] 44.7 µM | [8] 34.9 µM | [19] 28.6 µM | [11] 31.7 µM | [12] 23.6 µM | [14] 24.9 µM | [15] 34.5 µM | [16] 20.9 µM

CCCCCCCC(=O)OCC1OC(n2cc(F)c(=O)[nH]c2=O)C(NC(=O)OCc2ccccc2)C(OC(=O)CCCCCCC)C1O (configuration not stated)
inactive: [1] 30.1 µM | [4] 71.8 µM | [8] 29 µM | [19] 21.3 µM | [10] 16.7 µM | [11] 41.4 µM | [12] 35.2 µM | [14] 19.2 µM | [15] 36.5 µM | [16] 26.3 µM

CC1(c2nc3ccccc3[nH]2)CCC(C#N)C(C)(C)O1 (configuration not stated)
inactive: [1] > 100 µM | [2] > 100 µM | [3] > 100 µM | [4] > 100 µM | [5] > 100 µM | [6] > 100 µM | [7] > 100 µM | [8] > 100 µM | [9] > 100 µM | [10] > 100 µM | [11] > 100 µM | [12] > 100 µM | [13] > 100 µM | [14] > 100 µM | [15] > 100 µM | [16] > 100 µM | [17] > 100 µM | [18] > 100 µM

CS(=O)(=O)c1n[nH]c2nc(O)nc(O)c12
inactive: [1] > 10 µM | [2] > 10 µM | [3] > 10 µM | [4] > 10 µM | [5] > 10 µM | [6] > 10 µM | [7] > 10 µM | [8] > 10 µM | [9] > 10 µM | [10] > 10 µM | [11] > 10 µM | [12] > 10 µM | [13] > 10 µM | [14] > 10 µM | [15] > 10 µM | [16] > 10 µM | [17] > 10 µM | [18] > 10 µM

Cc1ccc(N2Cc3c(ccc4ccccc34)OP2(=O)Oc2ccc(Cl)c(C)c2)cc1 (configuration not stated)
inactive: [1] 26.1 µM | [2] > 78.7 µM | [4] > 100 µM | [8] > 100 µM | [10] 39.9 µM | [20] > 41.8 µM | [11] > 100 µM | [12] > 100 µM | [14] > 100 µM | [15] > 100 µM | [16] > 100 µM | [17] 18.4 µM
